Experimental data from PubChem BioAssay AID220 (DTP/NCI, 2004).
Several values for one entry are separate records, joined by “and”; a condition that tells them apart may be missing. Equal entries are not always repeated. Inconclusive results are not listed.

System: CD8F1 mice, subcutaneous mammary adenocarcinoma, T/C%
Assay: NCI In Vivo Anticancer Drug Screen. Data for tumor model Mammary Adenocarcinoma CD8F1 (subcutaneous) in CD8F1
Settings: higher = larger tumour
Outline: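 Mice carrying transplanted tumors received test compound, and survival or tumor size was recorded. Each value is the treated-group measurement divided by the corresponding measurement in vehicle-dosed controls.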

[1] = endpoint: median tumor weight change, dose: 62.5 mg/kg/injection, schedule: Q01DX001 (ip), vehicle: saline with Tween-80
[2] = endpoint: median tumor weight change, dose: 125.0 mg/kg/injection, schedule: Q01DX001 (ip), vehicle: saline with Tween-80
[3] = endpoint: median tumor weight (est.), dose: 12.5 mg/kg/injection, schedule: Q07DX005 (ip), vehicle: saline with Tween-80
[4] = endpoint: median tumor weight (est.), dose: 25.0 mg/kg/injection, schedule: Q07DX005 (ip), vehicle: saline with Tween-80
[5] = endpoint: median tumor weight (est.), dose: 50.0 mg/kg/injection, schedule: Q07DX005 (ip), vehicle: saline with Tween-80

## CCN1/C(=C/C=C/C=C\C=C\c2sc3ccc4ccccc4c3[n+]2CC)Sc2ccc3ccccc3c21
endpoint: median tumor weight change, dose: 25.0 mg/kg/injection, schedule: Q01DX001 (ip), vehicle: saline with Tween-80
  T/C: 70 % of control and 76 % of control
endpoint: median tumor weight change, dose: 100.0 mg/kg/injection, schedule: Q01DX001 (ip), vehicle: saline with Tween-80
  T/C: 32 % of control and 53 % of control
endpoint: median tumor weight change, dose: 200.0 mg/kg/injection, schedule: Q01DX001 (ip), vehicle: saline with Tween-80
  T/C: 69 % of control

## OC1(CSc2ccccc2)CCCCC1
endpoint: median tumor weight change, dose: 1000.0 mg/kg/injection, schedule: Q01DX001 (ip), vehicle: saline with Tween-80
  T/C: 13 % of control

## CCNC(C)(C)C(SSS)c1ccco1 (centres undefined)
endpoint: median tumor weight change, dose: 31.25 mg/kg/injection, schedule: Q01DX001 (ip), vehicle: saline with Tween-80
  T/C: 97 % of control
[1]
  T/C: 87 % of control
[2]
  T/C: 65 % of control
endpoint: median tumor weight change, dose: 250.0 mg/kg/injection, schedule: Q01DX001 (ip), vehicle: saline with Tween-80
  T/C: 59 % of control

## CC1OC(OC2CC(O)(C(=O)CO)Cc3c(O)c4c(c(O)c32)C(=O)c2ccccc2C4=O)CC(N)C1O (centres undefined)
endpoint: mean tumor weight, dose: 0.12 mg/kg/injection, schedule: Q07DX006 (ip), vehicle: saline
  T/C: 40 % of control
endpoint: mean tumor weight, dose: 0.5 mg/kg/injection, schedule: Q07DX006 (ip), vehicle: saline
  T/C: 1 % of control
endpoint: median tumor weight change, dose: 0.31 mg/kg/injection, schedule: Q01DX001 (ip), vehicle: water
  T/C: 67 % of control
endpoint: median tumor weight change, dose: 0.62 mg/kg/injection, schedule: Q01DX001 (ip), vehicle: water
  T/C: 37 % of control
endpoint: median tumor weight change, dose: 1.25 mg/kg/injection, schedule: Q01DX001 (ip), vehicle: water
  T/C: 26 % of control and 28 % of control

## Cn1c2ccccc2c2ccc3c(c21)C(=O)C=CC3=O
[1]
  T/C: 38 % of control

## CN(N=O)C(=O)N[C@@H](C=O)[C@@H](O)[C@H](O)[C@H](O)CO
endpoint: median tumor weight (est.), dose: 16.0 mg/kg/injection, schedule: Q07DX005 (ip), vehicle: Klucel (hydroxypropylcellulose) (HPC)
  T/C: 90 % of control
endpoint: median tumor weight (est.), dose: 16.0 mg/kg/injection, schedule: Q07DX005 (ip), vehicle: other
  T/C: 101 % of control and 109 % of control
endpoint: median tumor weight (est.), dose: 32.0 mg/kg/injection, schedule: Q07DX005 (ip), vehicle: Klucel (hydroxypropylcellulose) (HPC)
  T/C: 98 % of control
endpoint: median tumor weight (est.), dose: 50.0 mg/kg/injection, schedule: Q07DX005 (ip), vehicle: citric acid
  T/C: 98 % of control
endpoint: median tumor weight (est.), dose: 64.0 mg/kg/injection, schedule: Q07DX005 (ip), vehicle: Klucel (hydroxypropylcellulose) (HPC)
  T/C: 95 % of control
endpoint: median tumor weight (est.), dose: 64.0 mg/kg/injection, schedule: Q07DX005 (ip), vehicle: other
  T/C: 115 % of control
endpoint: median tumor weight (est.), dose: 100.0 mg/kg/injection, schedule: Q07DX005 (ip), vehicle: citric acid
  T/C: 76 % of control
endpoint: median tumor weight (est.), dose: 128.0 mg/kg/injection, schedule: Q07DX005 (ip), vehicle: other
  T/C: 87 % of control
endpoint: median tumor weight (est.), dose: 200.0 mg/kg/injection, schedule: Q07DX005 (ip), vehicle: citric acid
  T/C: 84 % of control
endpoint: median tumor weight (est.), dose: 256.0 mg/kg/injection, schedule: Q07DX005 (ip), vehicle: other
  T/C: 39 % of control
endpoint: median tumor weight (est.), dose: 400.0 mg/kg/injection, schedule: Q07DX005 (ip), vehicle: citric acid
  T/C: 48 % of control

## CCS/C(SC)=C(/c1ccccc1)[P+](c1ccccc1)(c1ccccc1)c1ccccc1
endpoint: median tumor weight change, dose: 0.5 mg/kg/injection, schedule: Q01DX001 (ip), vehicle: Klucel (hydroxypropylcellulose) (HPC)
  T/C: 159 % of control
endpoint: median tumor weight change, dose: 1.0 mg/kg/injection, schedule: Q01DX001 (ip), vehicle: Klucel (hydroxypropylcellulose) (HPC)
  T/C: 100 % of control
endpoint: median tumor weight change, dose: 2.0 mg/kg/injection, schedule: Q01DX001 (ip), vehicle: Klucel (hydroxypropylcellulose) (HPC)
  T/C: 114 % of control
endpoint: median tumor weight change, dose: 4.0 mg/kg/injection, schedule: Q01DX001 (ip), vehicle: Klucel (hydroxypropylcellulose) (HPC)
  T/C: 81 % of control
endpoint: median tumor weight change, dose: 8.0 mg/kg/injection, schedule: Q01DX001 (ip), vehicle: Klucel (hydroxypropylcellulose) (HPC)
  T/C: 43 % of control

## COc1ccc2nc3cc(Cl)ccc3c(NCCNCCNCCNc3c4ccc(Cl)cc4nc4ccc(OC)cc34)c2c1
[3]
  T/C: 86 % of control and 108 % of control
[4]
  T/C: 68 % of control
[5]
  T/C: 88 % of control

## O=C(NP(=O)(N1CC1)N1CC1)c1cc(I)ccc1I
endpoint: median tumor weight (est.), dose: 16.0 mg/kg/injection, schedule: Q07DX005 (ip), vehicle: saline with Tween-80
  T/C: 68 % of control
endpoint: median tumor weight (est.), dose: 32.0 mg/kg/injection, schedule: Q07DX005 (ip), vehicle: saline with Tween-80
  T/C: 77 % of control
endpoint: median tumor weight (est.), dose: 64.0 mg/kg/injection, schedule: Q07DX005 (ip), vehicle: saline with Tween-80
  T/C: 49 % of control
endpoint: median tumor weight (est.), dose: 128.0 mg/kg/injection, schedule: Q07DX005 (ip), vehicle: saline with Tween-80
  T/C: 6 % of control

## Cc1c(-c2ccc(-c3ccccc3F)cc2)nc2ccc(F)cc2c1C(=O)O
endpoint: median tumor weight change, dose: 5.6 mg/kg/injection, schedule: Q01DX005 (ip), vehicle: water
  T/C: 53 % of control
endpoint: median tumor weight change, dose: 11.25 mg/kg/injection, schedule: Q01DX005 (ip), vehicle: water
  T/C: 33 % of control
endpoint: median tumor weight change, dose: 19.0 mg/kg/injection, schedule: Q01DX005 (ip), vehicle: water
  T/C: 74 % of control
endpoint: median tumor weight change, dose: 22.5 mg/kg/injection, schedule: Q01DX005 (ip), vehicle: water
  T/C: 29 % of control
endpoint: median tumor weight change, dose: 32.4 mg/kg/injection, schedule: Q01DX005 (ip), vehicle: water
  T/C: 13 % of control
endpoint: median tumor weight change, dose: 45.0 mg/kg/injection, schedule: Q01DX001 (ip), vehicle: water
  T/C: 56 % of control
endpoint: median tumor weight change, dose: 45.0 mg/kg/injection, schedule: Q01DX005 (ip), vehicle: water
  T/C: 24 % of control
endpoint: median tumor weight change, dose: 54.0 mg/kg/injection, schedule: Q01DX005 (ip), vehicle: water
  T/C: 27 % of control
endpoint: median tumor weight change, dose: 90.0 mg/kg/injection, schedule: Q01DX001 (ip), vehicle: water
  T/C: 82 % of control
endpoint: median tumor weight change, dose: 90.0 mg/kg/injection, schedule: Q01DX005 (ip), vehicle: water
  T/C: 15 % of control and 20 % of control

## N=C1CCCS1
endpoint: median tumor weight change, dose: 125.0 mg/kg/injection, schedule: Q01DX001 (ip), vehicle: saline
  T/C: 93 % of control
endpoint: median tumor weight change, dose: 250.0 mg/kg/injection, schedule: Q01DX001 (ip), vehicle: saline
  T/C: 89 % of control

## CC1=C(O)C(=O)[C@@H]2O[C@@H]2C1=O
endpoint: median tumor weight change, dose: 7.8 mg/kg/injection, schedule: Q01DX001 (ip), vehicle: saline
  T/C: 54 % of control
endpoint: median tumor weight change, dose: 15.6 mg/kg/injection, schedule: Q01DX001 (ip), vehicle: saline
  T/C: 81 % of control
endpoint: median tumor weight change, dose: 31.25 mg/kg/injection, schedule: Q01DX001 (ip), vehicle: saline
  T/C: 48 % of control

## Nc1nc2c(C(=O)N3CCCC3)nnn2c2ccccc12
[1]
  T/C: 77 % of control
[2]
  T/C: 87 % of control

## O=S(=O)(O)O
endpoint: median tumor weight change, dose: 62.5 mg/kg/injection, schedule: Q01DX001 (ip), vehicle: Klucel (hydroxypropylcellulose) (HPC)
  T/C: 101 % of control

## CN(C)C(=O)c1cccc(COc2ccc(N3C(N)=NC(N)=NC3(C)C)cc2Cl)c1
endpoint: median tumor weight (est.), dose: 8.0 mg/kg/injection, schedule: Q07DX005 (ip), vehicle: suspension in saline
  T/C: 154 % of control
endpoint: median tumor weight (est.), dose: 16.0 mg/kg/injection, schedule: Q07DX005 (ip), vehicle: suspension in saline
  T/C: 57 % of control
endpoint: median tumor weight (est.), dose: 32.0 mg/kg/injection, schedule: Q07DX005 (ip), vehicle: suspension in saline
  T/C: 64 % of control

## c1cc[c]([Sn]([NH]c2ncnc3[nH]cnc23)([NH]c2ncnc3[nH]cnc23)[c]2ccccc2)cc1
endpoint: median tumor weight change, dose: 125.0 mg/kg/injection, schedule: Q01DX001 (ip), vehicle: suspension in saline
  T/C: 101 % of control
endpoint: median tumor weight change, dose: 250.0 mg/kg/injection, schedule: Q01DX001 (ip), vehicle: suspension in saline
  T/C: 61 % of control
endpoint: median tumor weight change, dose: 500.0 mg/kg/injection, schedule: Q01DX001 (ip), vehicle: suspension in saline
  T/C: 41 % of control
endpoint: median tumor weight change, dose: 1000.0 mg/kg/injection, schedule: Q01DX001 (ip), vehicle: suspension in saline
  T/C: 42 % of control

## OC1CCCC2CCCNC12 (centres undefined)
endpoint: median tumor weight (est.), dose: 6.25 mg/kg/injection, schedule: Q07DX005 (ip), vehicle: saline with Tween-80
  T/C: 206 % of control
[3]
  T/C: 102 % of control
[4]
  T/C: 171 % of control
[5]
  T/C: 73 % of control

## O=[N+]([O-])c1ccc(Cl)c([N+](=O)[O-])c1
endpoint: median tumor weight (est.), dose: 15.0 mg/kg/injection, schedule: Q07DX005 (ip), vehicle: saline with Tween-80
  T/C: 78 % of control
endpoint: median tumor weight (est.), dose: 120.0 mg/kg/injection, schedule: Q07DX005 (ip), vehicle: saline with Tween-80
  T/C: 61 % of control and 83 % of control
endpoint: median tumor weight (est.), dose: 240.0 mg/kg/injection, schedule: Q07DX005 (ip), vehicle: saline with Tween-80
  T/C: 65 % of control
